Biological target: T1, human calcium receptor (Homo sapiens, UniProt P41180)
T1 construct: expressed in transfected cells; host or cells: cell strain derived from rat adrenal, co-transformed with luciferase cDNA
T1 sequence (P41180 20-1078): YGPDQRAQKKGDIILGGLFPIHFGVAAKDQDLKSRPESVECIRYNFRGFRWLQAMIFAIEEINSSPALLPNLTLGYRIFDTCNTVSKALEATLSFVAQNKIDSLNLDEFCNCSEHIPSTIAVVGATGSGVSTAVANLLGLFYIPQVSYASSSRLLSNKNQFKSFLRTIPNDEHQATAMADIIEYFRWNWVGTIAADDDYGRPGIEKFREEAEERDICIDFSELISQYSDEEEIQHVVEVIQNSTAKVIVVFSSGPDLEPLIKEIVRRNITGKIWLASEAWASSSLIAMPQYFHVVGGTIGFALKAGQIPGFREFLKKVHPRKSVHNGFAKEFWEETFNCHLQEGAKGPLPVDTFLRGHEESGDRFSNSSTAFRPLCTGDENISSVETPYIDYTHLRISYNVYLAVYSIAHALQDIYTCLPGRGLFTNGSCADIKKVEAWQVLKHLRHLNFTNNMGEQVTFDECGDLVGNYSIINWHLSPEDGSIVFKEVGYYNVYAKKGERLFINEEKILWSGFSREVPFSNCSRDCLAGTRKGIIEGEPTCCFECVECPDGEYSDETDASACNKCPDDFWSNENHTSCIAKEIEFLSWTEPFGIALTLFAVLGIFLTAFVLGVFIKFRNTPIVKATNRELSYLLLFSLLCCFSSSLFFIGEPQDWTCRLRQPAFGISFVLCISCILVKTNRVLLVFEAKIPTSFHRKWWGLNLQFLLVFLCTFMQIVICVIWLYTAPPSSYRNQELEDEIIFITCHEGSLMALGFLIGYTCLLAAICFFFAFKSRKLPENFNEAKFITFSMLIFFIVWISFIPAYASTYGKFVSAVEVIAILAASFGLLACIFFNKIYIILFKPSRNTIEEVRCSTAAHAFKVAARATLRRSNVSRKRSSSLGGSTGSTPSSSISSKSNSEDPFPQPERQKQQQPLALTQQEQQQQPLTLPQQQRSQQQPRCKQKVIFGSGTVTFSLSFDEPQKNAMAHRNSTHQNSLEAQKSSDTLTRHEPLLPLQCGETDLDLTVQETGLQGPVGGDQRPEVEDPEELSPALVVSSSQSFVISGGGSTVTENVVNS
Assay: Evaluation of antagonistic action on calcium receptor using reporter gene (luciferase)
Type: cell-based
Settings: transformed rat adrenal derived cells, 5 mM calcium chloride, culture 4 hrs, luciferase activity; read-out: Reporter gene assay (IC50, concentration showing 50% inhibitory rate)
In short: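 Rat adrenal-derived cells transfected with luciferase and human calcium receptor cDNA, in F12 with 0.5% dialyzed horse serum and 0.25% dialyzed fetal bovine serum. Luciferase luminescence gave % inhibition vs control and blank; IC50 at 50% inhibition.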

| SMILES | IC50 |
| --- | --- |
| Cc1cc(-c2ccccc2C(OC[C@H](O)CNC(C)(C)Cc2ccc3ccccc3c2)C2CC2)ccc1C(=O)O (stereo partly drawn) [Example 1-63, 2′-[(cyclopropyl)[(2R)-3-[[1-(naphthalen-2-yl)-2-methylpropan-2-yl]amino]-2-hydroxypropoxy]methyl]-3-methylbiphenyl-4-carboxylic acid] | 16 nM |
| C[C@@H](OC[C@H](O)CNC(C)(C)Cc1ccc2ccccc2c1)c1ccccc1-c1ccc(F)c(C(=O)O)c1 [Example 1-56, 4-fluoro-2′-[1-[(2R)-3-[[1-(naphthalen-2-yl)-2-methylpropan-2-yl]amino]-2-hydroxypropoxy]ethyl]biphenyl-3-carboxylic acid] | 19 nM |
| Cc1ccc(CC(C)(C)NC[C@@H](O)CO[C@H](C)c2ccccc2-c2ccc(CO)c(C(=O)O)c2)cc1F [Example 1-47, 2′-[1-[(2R)-3-[[1-(3-fluoro-4-methylphenyl)-2-methylpropan-2-yl]amino]-2-hydroxypropoxy]ethyl]-4-(hydroxymethyl)biphenyl-3-carboxylic acid] | 65 nM |
| COc1cc(C(=O)O)cc(OC)c1Oc1ccccc1C(C)OC[C@H](O)CNC(C)(C)Cc1ccc(C)c(F)c1 (stereo partly drawn) [Example 2-27, 4-[2-[1-[(2R)-3-[[1-(3-fluoro-4-methylphenyl)-2-methylpropan-2-yl]amino]-2-hydroxypropoxy]ethyl]phenoxy]-3,5-dimethoxybenzoic acid] | 27 nM |
| Cc1cc(-c2ccccc2[C@@H](C)OC[C@H](O)CNC(C)(C)Cc2ccc(Cl)c(C(F)(F)F)c2)ccc1C(=O)O [Example 1-97, 2′-[1-[(2R)-3-[[1-(4-chloro-3-trifluoromethylphenyl)-2-methylpropan-2-yl]amino]-2-hydroxypropoxy]ethyl]-3-methylbiphenyl-4-carboxylic acid] | 106 nM |
| Cc1ccc(CC(C)(C)NC[C@@H](O)CO[C@H](C)c2ccccc2-c2cc3c(c(C(=O)O)c2)OCC3)cc1F [Example 1-78, 2,3-dihydro-5-[2-[1-[(2R)-3-[[1-(3-fluoro-4-methylphenyl)-2-methylpropan-2-yl]amino]-2-hydroxypropoxy]ethyl]phenyl]benzofuran-7-carboxylic acid] | 20 nM |
| CC(OC[C@H](O)CNC(C)(C)Cc1ccc2ccccc2c1)c1ccccc1OCc1ccc(C(=O)O)cc1 (stereo partly drawn) [2-22′] | 23 nM |
| COc1cc(-c2ccccc2[C@@H](C)OC[C@H](O)CNC(C)(C)Cc2ccc(Cl)cc2F)ccc1C(=O)O [Example 1-81, 2′-[1-[(2R)-3-[[1-(4-chloro-2-fluorophenyl)-2-methylpropan-2-yl]amino]-2-hydroxypropoxy]ethyl]-3-methoxybiphenyl-4-carboxylic acid] | 26 nM |
| COc1cc(-c2ccccc2[C@@H](C)OC[C@H](O)CNC(C)(C)Cc2ccc(Cl)c(F)c2)ccc1C(=O)O [Example 1-82, 2′-[1-[(2R)-3-[[1-(4-chloro-3-fluorophenyl)-2-methylpropan-2-yl]amino]-2-hydroxypropoxy]ethyl]-3-methoxybiphenyl-4-carboxylic acid] | 27 nM |
| C[C@@H](OC[C@H](O)CNC(C)(C)Cc1ccc2ccccc2c1)c1ccccc1Cc1cccc(C(=O)O)c1 [Example 2-15, 3-[2-[1-[(2R)-3-[[1-(naphthalen-2-yl)-2-methylpropan-2-yl]amino]-2-hydroxypropoxy]ethyl]benzyl]benzoic acid] | 16 nM |
| C[C@@H](OC[C@H](O)CNC(C)(C)Cc1ccc2ccccc2c1)c1ccccc1Cc1ccc(C(=O)O)cc1 [Example 2-14, 4-[2-[1-[(2R)-3-[[1-(naphthalen-2-yl)-2-methylpropan-2-yl]amino]-2-hydroxypropoxy]ethyl]benzyl]benzoic acid] | 53 nM |
| Cc1ccc(CC(C)(C)NC[C@@H](O)CO[C@H](C)c2ccccc2OCc2cccc(C(=O)O)c2)cc1F [Example 2-23, 3-[[2-[1-[(2R)-3-[[1-(3-fluoro-4-methylphenyl)-2-methylpropan-2-yl]amino]-2-hydroxypropoxy]ethyl]phenoxy]methyl]benzoic acid] | 27 nM |
| Cc1cc(C(=O)O)ccc1-c1ccccc1[C@@H](C)OC[C@H](O)CNC(C)(C)Cc1ccc(Cl)cc1F [Example 1-84, 2′-[1-[(2R)-3-[[1-(4-chloro-2-fluorophenyl)-2-methylpropan-2-yl]amino]-2-hydroxypropoxy]ethyl]-2-methylbiphenyl-4-carboxylic acid] | 22 nM |

The next compounds have a lower IC50 than those just listed; values first:

| IC50 | SMILES |
| --- | --- |
| 6 nM | Cc1ccc(CC(C)(C)NC[C@@H](O)CO[C@@H](c2ccccc2-c2ccc(C(=O)O)c(C)c2)C2CC2)cc1F [Example 1-14, 2′-[(cyclopropyl)[(2R)-3-[[1-(3-fluoro-4-methylphenyl)-2-methylpropan-2-yl]amino]-2-hydroxypropoxy]methyl]-3-methylbiphenyl-4-carboxylic acid] |
| 4 nM | CCc1cc(-c2ccccc2[C@@H](C)OC[C@H](O)CNC(C)(C)Cc2ccc(Cl)c(F)c2)ccc1C(=O)O [Example 1-51, 3-ethyl-2′-[1-[(2R)-3-[[1-(4-chloro-3-fluorophenyl)-2-methylpropan-2-yl]amino]-2-hydroxypropoxy]ethyl]biphenyl-4-carboxylic acid] |
| 15 nM | Cc1ccc(CC(C)(C)NC[C@@H](O)CO[C@H](C)c2ccccc2-c2ccc(C(=O)O)c(C)c2)c(F)c1 [Example 1-7, 2′-[1-[(2R)-3-[[1-(2-fluoro-4-methylphenyl)-2-methylpropan-2-yl]amino]-2-hydroxypropoxy]ethyl]-3-methylbiphenyl-4-carboxylic acid] |
| 3 nM | CC(C)c1cc(-c2ccccc2[C@@H](C)OC[C@H](O)CNC(C)(C)Cc2ccc(Cl)c(F)c2)ccc1C(=O)O [Example 1-52, 2′-[1-[(2R)-3-[[1-(4-chloro-3-fluorophenyl)-2-methylpropan-2-yl]amino]-2-hydroxypropoxy]ethyl]-3-isopropylbiphenyl-4-carboxylic acid] |
| 12 nM | Cc1ccc(CC(C)(C)NC[C@@H](O)CO[C@H](C)c2ccccc2-c2ccc(C(=O)O)c(C)c2)cc1F [Example 1-15, 2′-[1-[(2R)-3-[[1-(3-fluoro-4-methylphenyl)-2-methylpropan-2-yl]amino]-2-hydroxypropoxy]ethyl]-3-methylbiphenyl-4-carboxylic acid] |
| 14 nM | Cc1cc(-c2ccccc2[C@@H](C)OC[C@H](O)CNC(C)(C)Cc2cc(Cl)cc(Cl)c2)ccc1C(=O)O [Example 1-87, 2′-[1-[(2R)-3-[[1-(3,5-dichlorophenyl)-2-methylpropan-2-yl]amino]-2-hydroxypropoxy]ethyl]-3-methylbiphenyl-4-carboxylic acid] |
| 14 nM | Cc1ccc(CC(C)(C)NC[C@@H](O)CO[C@H](C)c2ccccc2Oc2ccc(C(=O)O)c(C(F)(F)F)c2)cc1F [Example 2-32, 4-[2-[1-[(2R)-3-[[1-(3-fluoro-4-methylphenyl)-2-methylpropan-2-yl]amino]-2-hydroxypropoxy]ethyl]phenoxy]-2-trifluoromethylbenzoic acid] |
| 15 nM | CCC(C)c1cc(-c2ccccc2[C@@H](C)OC[C@H](O)CNC(C)(C)Cc2ccc(C)c(F)c2)ccc1C(=O)O (stereo partly drawn) [Example 1-53, 2′-[1-[(2R)-3-[[1-(3-fluoro-4-methylphenyl)-2-methylpropan-2-yl]amino]-2-hydroxypropoxy]ethyl]-3-(1-methylpropyl)biphenyl-4-carboxylic acid] |
| 2 nM | C[C@@H](OC[C@H](O)CNC(C)(C)Cc1ccc2ccccc2c1)c1ccccc1-c1ccc(C(=O)O)c(O)c1 [Example 1-49, 2′-[1-[(2R)-3-[[1-(naphthalen-2-yl)-2-methylpropan-2-yl]amino]-2-hydroxypropoxy]ethyl]-3-hydroxybiphenyl-4-carboxylic acid] |
| 14 nM | Cc1ccc(CC(C)(C)NC[C@@H](O)CO[C@H](C)c2ccccc2-c2ccc(C)c(C(=O)O)c2)cc1F [Example 1-86, 2′-[1-[(2R)-3-[[1-(3-fluoro-4-methylphenyl)-2-methylpropan-2-yl]amino]-2-hydroxypropoxy]ethyl]-4-methylbiphenyl-3-carboxylic acid] |
| 15 nM | Cc1cc(-c2ccccc2[C@@H](C)OC[C@H](O)CNC(C)(C)Cc2ccc3ccccc3c2)ccc1C(=O)O [Example 1-13, 2′-[1-[(2R)-3-[[1-(naphthalen-2-yl)-2-methylpropan-2-yl]amino]-2-hydroxypropoxy]ethyl]-3-methylbiphenyl-4-carboxylic acid] |

Reference: patent publication US7304174B2, “CaSR antagonist” (Japan Tobacco Inc., priority 2003, dated 2007)
